Laboratory results as given in US20240409573A1, “CALICHEAMICIN DERIVATIVES AND ANTIBODY DRUG CONJUGATES THEREOF” (priority 2017, published 2024).
pIC50: −log10 of the molar value.

Columns and labels:
Assay type in all cases: cell-based
[1] = test system: MDA-MB-361-DYT2 (breast cancer) cells, Her2-target expressing; assay: In vitro cell assay, cell viability by MTS, MDA-MB-361-DYT2; conditions: 96 h, read-out: Average IC50, MDA-MB-361-DYT2
Protocol: (§1) Her2-Target expressing (BT474 (breast cancer), N87 (gastric cancer), MDA-MB-361-DYT2 (breast cancer)) or Her2-non-expressing (MDA-MB-468, HT29) cells, or 0033-target expressing HL60, HEL92.1.7, NB4, TF-1 or 0033-non-expressing (Raji) cells were seeded in 96-well cell culture plates for 24 hours before treatment. Cells were treated with 3-fold serially diluted antibody-drug conjugates or free compounds (i.e., no antibody conjugated to the drug) in duplicate at 10 concentrations. Cell viability was determined by CellTiter 96® AQueous One Solution Cell Proliferation MTS Assay (Promega, Madison WI) 96 hours after treatment. Relative cell viability was determined as percentage of untreated control. IC50 values were calculated using a four parameter logistic model #203 with XLfit v4.2 (IDBS, Guildford, Surry, UK). Results are shown below in Table 3 (for payloads), Table 4 (for Herceptin conjugates), and Table 5 (for CD33 conjugates).

[2] = test system: N87 (gastric cancer) cells, Her2-target expressing; assay: In vitro cell assay, cell viability by MTS, N87; conditions: 96 h, read-out: Average IC50, N87
Protocol: as §1

[3] = test system: HL60 cells, CD33-target expressing; assay: In vitro cell assay, cell viability by MTS, HL60; conditions: Homo sapiens, HL-60, 96 h, read-out: Average IC50, HL-60
Protocol: as §1

[4] = test system: TF-1 cells, CD33-target expressing; assay: In vitro cell assay, cell viability by MTS, TF-1; conditions: Homo sapiens, TF-1, 96 h, read-out: Average IC50, TF-1
Protocol: as §1

[5] = test system: HT29 cells, Her2-non-expressing; assay: In vitro cell assay, cell viability by MTS, HT29; conditions: Homo sapiens, HT-29, 96 h, read-out: Average IC50, HT29
Protocol: as §1

[6] = test system: Raji cells, CD33-non-expressing; assay: In vitro cell assay, cell viability by MTS, Raji; conditions: Homo sapiens, 96 h, read-out: Average IC50, Raji
Protocol: as §1

SMILES	pIC50 [1]	pIC50 [2]	pIC50 [3]	pIC50 [4]	pIC50 [5]	pIC50 [6]
CCN[C@H]1CO[C@@H](O[C@H]2[C@H](O[C@H]3C#C/C=C\C#C[C@]4(O)CC(=O)C(NC(=O)OC)=C3/C4=C\CSSC(C)(C)CC(=O)O)O[C@H](C)[C@@H](NO[C@H]3C[C@H](O)[C@H](SC(=O)c4c(C)c(I)c(O[C@@H]5O[C@@H](C)[C@H](O)[C@@H](OC)[C@H]5O)c(OC)c4OC)[C@@H](C)O3)[C@@H]2O)C[C@@H]1OC [Example P32]	10.89	10.82	11.52	10.42	11.40	11.40
CCN[C@H]1CO[C@@H](O[C@H]2[C@H](O[C@H]3C#C/C=C\C#C[C@]4(O)CC(=O)C(NC(=O)OC)=C3/C4=C\CSSC(C)(C)C#N)O[C@H](C)[C@@H](NO[C@H]3C[C@H](O)[C@H](SC(=O)c4c(C)c(I)c(O[C@@H]5O[C@@H](C)[C@H](O)[C@@H](OC)[C@H]5O)c(OC)c4OC)[C@@H](C)O3)[C@@H]2O)C[C@@H]1OC [Example P23]	11.15	11.30	–	–	10.92	–
CCN(C(=O)Nc1ccc(CNC(=O)OCC2c3ccccc3-c3ccccc32)cc1)[C@H]1CO[C@@H](O[C@H]2[C@H](O[C@H]3C#C/C=C\C#C[C@]4(O)CC(=O)C(NC(=O)OC)=C3/C4=C\CSSC(C)(C)C)O[C@H](C)[C@@H](NO[C@H]3C[C@H](O)[C@H](SC(=O)c4c(C)c(I)c(O[C@@H]5O[C@@H](C)[C@H](O)[C@@H](OC)[C@H]5O)c(OC)c4OC)[C@@H](C)O3)[C@@H]2O)C[C@@H]1OC [Example P49]	> 10.00	11.15	11.52	10.29	11.22	11.70
CCNC1COC(OC2C(OC3C#C/C=C\C#C[C@]4(O)CC(=O)C(NC(=O)OC)=C3/C4=C\CSSC3CC3)OC(C)C(NOC3CC(O)C(SC(=O)c4c(C)c(I)c(OC5OC(C)C(O)C(OC)C5O)c(OC)c4OC)C(C)O3)C2O)CC1OC (stereo in doubt) [Example P18]	10.77	10.48	11.30	10.03	11.30	11.52
CCN[C@H]1CO[C@@H](O[C@H]2[C@H](O[C@H]3C#C/C=C\C#C[C@]4(O)CC(=O)C(NC(=O)OC)=C3/C4=C\CSSC34CC5CC(CC(C5)C3)C4)O[C@H](C)[C@@H](NO[C@H]3C[C@H](O)[C@H](SC(=O)c4c(C)c(I)c(O[C@@H]5O[C@@H](C)[C@H](O)[C@@H](OC)[C@H]5O)c(OC)c4OC)[C@@H](C)O3)[C@@H]2O)C[C@@H]1OC [Example P22]	10.36	10.82	–	–	11.05	–
CCN[C@H]1CO[C@@H](O[C@H]2[C@H](O[C@H]3C#C/C=C\C#C[C@]4(O)CC(=O)C(NC(=O)OC)=C3/C4=C\CSSC(C)(C)[C@H](N)C(=O)O)O[C@H](C)[C@@H](NO[C@H]3C[C@H](O)[C@H](SC(=O)c4c(C)c(I)c(O[C@@H]5O[C@@H](C)[C@H](O)[C@@H](OC)[C@H]5O)c(OC)c4OC)[C@@H](C)O3)[C@@H]2O)C[C@@H]1OC [Example P33]	8.82	8.78	9.69	8.96	9.41	9.58
CCNC1COC(OC2C(OC3C#C/C=C\C#C[C@]4(O)CC(=O)C(NC(=O)OC)=C3/C4=C\CSSC3CCCC3)OC(C)C(NOC3CC(O)C(SC(=O)c4c(C)c(I)c(OC5OC(C)C(O)C(OC)C5O)c(OC)c4OC)C(C)O3)C2O)CC1OC (stereo in doubt) [Example P20]	11.30	11.40	–	–	11.70	–
CCN[C@H]1CO[C@@H](O[C@H]2[C@H](O[C@H]3C#C/C=C\C#C[C@]4(O)CC(=O)C(NC(=O)OC)=C3/C4=C\CSSC(C)C(=O)O)O[C@H](C)[C@@H](NO[C@H]3C[C@H](O)[C@H](SC(=O)c4c(C)c(I)c(O[C@@H]5O[C@@H](C)[C@H](O)[C@@H](OC)[C@H]5O)c(OC)c4OC)[C@@H](C)O3)[C@@H]2O)C[C@@H]1OC (mixture of isomers) [Example P9]	8.72	9.41	–	–	9.48	–
CCN[C@H]1CO[C@@H](O[C@H]2[C@H](O[C@H]3C#C/C=C\C#C[C@]4(O)CC(=O)C(NC(=O)OC)=C3/C4=C\CSSC(C)(C)c3cccnc3N)O[C@H](C)[C@@H](NO[C@H]3C[C@H](O)[C@H](SC(=O)c4c(C)c(I)c(O[C@@H]5O[C@@H](C)[C@H](O)[C@@H](OC)[C@H]5O)c(OC)c4OC)[C@@H](C)O3)[C@@H]2O)C[C@@H]1OC [Example P26]	10.77	10.46	11.70	10.44	11.40	11.40
CCN[C@H]1CO[C@@H](O[C@H]2[C@H](O[C@H]3C#C/C=C\C#C[C@]4(O)CC(=O)C(NC(=O)OC)=C3/C4=C\CSSC(C)(C)c3ccc(C(=O)O)cc3)O[C@H](C)[C@@H](NO[C@H]3C[C@H](O)[C@H](SC(=O)c4c(C)c(I)c(O[C@@H]5O[C@@H](C)[C@H](O)[C@@H](OC)[C@H]5O)c(OC)c4OC)[C@@H](C)O3)[C@@H]2O)C[C@@H]1OC [Example P29]	10.60	9.77	10.60	9.33	10.44	10.82
CCN[C@H]1CO[C@@H](O[C@H]2[C@H](O[C@H]3C#C/C=C\C#C[C@]4(O)CC(=O)C(NC(=O)OC)=C3/C4=C\CSSC[C@H](NC(=O)CC[C@H](N)C(=O)O)C(=O)NCC(=O)O)O[C@H](C)[C@@H](NO[C@H]3C[C@H](O)[C@H](SC(=O)c4c(C)c(I)c(O[C@@H]5O[C@@H](C)[C@H](O)[C@@H](OC)[C@H]5O)c(OC)c4OC)[C@@H](C)O3)[C@@H]2O)C[C@@H]1OC [Example P14]	7.81	8.56	–	–	8.65	–
CCN[C@H]1CO[C@@H](O[C@@H]2C(O)[C@H](NO[C@H]3C[C@H](O)[C@H](SC(=O)c4c(C)c(I)c(O[C@@H]5O[C@@H](C)[C@H](O)[C@@H](OC)[C@H]5O)c(OC)c4OC)[C@@H](C)O3)[C@@H](C)O[C@H]2O[C@H]2C#C/C=C\C#C[C@]3(O)CC(=O)C(NC(=O)OC)=C2/C3=C\CSSc2ccncc2)C[C@@H]1OC (stereo in doubt) [Example P44]	< 8.00	9.38	9.90	8.83	8.90	9.77
CCN[C@H]1CO[C@@H](O[C@H]2[C@H](O[C@H]3C#C/C=C\C#C[C@]4(O)CC(=O)C(NC(=O)OC)=C3/C4=C\CSSC(C)(C)c3ccc(N)cc3)O[C@H](C)[C@@H](NO[C@H]3C[C@H](O)[C@H](SC(=O)c4c(C)c(I)c(O[C@@H]5O[C@@H](C)[C@H](O)[C@@H](OC)[C@H]5O)c(OC)c4OC)[C@@H](C)O3)[C@@H]2O)C[C@@H]1OC [Example P27]	11.52	10.40	11.40	10.70	11.22	11.70
CCN[C@H]1CO[C@@H](O[C@H]2[C@H](O[C@H]3C#C/C=C\C#C[C@]4(O)CC(=O)C(NC(=O)OC)=C3/C4=C\CSSC(C)(C)CC(=O)N(C)C)O[C@H](C)[C@@H](NO[C@H]3C[C@H](O)[C@H](SC(=O)c4c(C)c(I)c(O[C@@H]5O[C@@H](C)[C@H](O)[C@@H](OC)[C@H]5O)c(OC)c4OC)[C@@H](C)O3)[C@@H]2O)C[C@@H]1OC [Example P31]	10.49	10.29	10.96	10.08	11.00	11.10
CCN[C@H]1CO[C@@H](O[C@H]2[C@H](O[C@H]3C#C/C=C\C#C[C@]4(O)CC(=O)C(NC(=O)OC)=C3/C4=C\CSSC3CCN(C)CC3)O[C@H](C)[C@@H](NO[C@H]3C[C@H](O)[C@H](SC(=O)c4c(C)c(I)c(O[C@@H]5O[C@@H](C)[C@H](O)[C@@H](OC)[C@H]5O)c(OC)c4OC)[C@@H](C)O3)[C@@H]2O)C[C@@H]1OC [Example P15]	10.11	10.11	–	–	9.92	–
CCN[C@H]1CO[C@@H](O[C@H]2[C@H](O[C@H]3C#CC=CC#C[C@]4(O)CC(=O)C(NC(=O)OC)=C3/C4=C\CSSC3CCC3)O[C@H](C)[C@@H](NO[C@H]3C[C@H](O)[C@H](SC(=O)c4c(C)c(I)c(O[C@@H]5O[C@@H](C)[C@H](O)[C@@H](OC)[C@H]5O)c(OC)c4OC)[C@@H](C)O3)[C@@H]2O)C[C@@H]1OC [Example P19]	11.30	11.30	–	–	11.40	–
CCN[C@H]1CO[C@@H](O[C@H]2[C@H](O[C@H]3C#C/C=C\C#C[C@]4(O)CC(=O)C(NC(=O)OC)=C3/C4=C\CSSC3CCN(C(=O)OC(C)(C)C)CC3)O[C@H](C)[C@@H](NO[C@H]3C[C@H](O)[C@H](SC(=O)c4c(C)c(I)c(O[C@@H]5O[C@@H](C)[C@H](O)[C@@H](OC)[C@H]5O)c(OC)c4OC)[C@@H](C)O3)[C@@H]2O)C[C@@H]1OC [Example P17]	9.82	8.62	–	–	9.30	–
CCNC1COC(OC2C(OC3C#C/C=C\C#C[C@]4(O)CC(=O)C(NC(=O)OC)=C3/C4=C\CSSC3CCCCC3)OC(C)C(NOC3CC(O)C(SC(=O)c4c(C)c(I)c(OC5OC(C)C(O)C(OC)C5O)c(OC)c4OC)C(C)O3)C2O)CC1OC (stereo in doubt) [Example P21]	10.19	10.89	–	–	10.92	–
